PMC4503950, “EGCG reverses human neutrophil elastase-induced migration in A549 cells by directly binding to HNE and by regulating α1-AT” (Scientific Reports, 2015)

Molecular target: T1, human neutrophil elastase (HNE) (Homo sapiens, UniProt P08246)
T1 construct: gene ELANE; Recombinant HNE protein (molecular mass, 25 kDa)
T1 sequence (P08246 30-247): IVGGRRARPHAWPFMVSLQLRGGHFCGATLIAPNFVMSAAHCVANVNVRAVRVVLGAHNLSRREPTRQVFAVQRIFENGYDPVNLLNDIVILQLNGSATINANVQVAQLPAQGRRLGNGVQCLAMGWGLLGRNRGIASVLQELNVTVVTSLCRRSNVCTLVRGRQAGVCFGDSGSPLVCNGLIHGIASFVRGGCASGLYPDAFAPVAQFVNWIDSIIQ
Experiment: SPR (Biacore […], HNE immobilized on CM5 chip, […] Langmuir fit); also enzyme inhibition with IC50 […]
Format: binding

O=C(OC1Cc2c(O)cc(O)cc2OC1c1cc(O)c(O)c(O)c1)c1cc(O)c(O)c(O)c1 (stereo not shown) [EGCG] was tested, and the Kd was 41.4 µM.
